# From PubChem BioAssay (NCI)
#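 Grown in 96-well plates, cells were treated for 48 hours with each compound at five concentrations. Insufficient inhibition: endpoint recorded as highest concentration tested. GI50 = concentration required for 50% inhibition of growth. TGI: total growth inhibition.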
# Columns and labels:
# Experiment in all cases: inhibition of tumour cell growth, NCI panel, 48 h
# 786-0 renal = tested on: 786-0 renal
# A498 renal = tested on: A498 renal
# A549 NSCLC = tested on: A549 NSCLC
# ACHN renal = tested on: ACHN renal
# BT-549 breast = tested on: BT-549 breast
# CAKI-1 renal = tested on: CAKI-1 renal
# CCRF-CEM leukemia = tested on: CCRF-CEM leukemia
# COLO 205 colon = tested on: COLO 205 colon
# DU-145 prostate = tested on: DU-145 prostate
# EKVX NSCLC = tested on: EKVX NSCLC
# HCC-2998 colon = tested on: HCC-2998 colon
# HCT-116 colon = tested on: HCT-116 colon
# HCT-15 colon = tested on: HCT-15 colon
# HL-60(TB) leukemia = tested on: HL-60(TB) leukemia
# HOP-62 NSCLC = tested on: HOP-62 NSCLC
# HOP-92 NSCLC = tested on: HOP-92 NSCLC
# HS 578T breast = tested on: HS 578T breast
# HT29 colon = tested on: HT29 colon
# IGROV1 ovarian = tested on: IGROV1 ovarian
# K-562 leukemia = tested on: K-562 leukemia
# KM12 colon = tested on: KM12 colon
# LOX IMVI melanoma = tested on: LOX IMVI melanoma
# M14 melanoma = tested on: M14 melanoma
# MALME-3M melanoma = tested on: MALME-3M melanoma
# MCF7 breast = tested on: MCF7 breast
# MDA-MB-231 breast = tested on: MDA-MB-231 breast
# MDA-MB-435 = tested on: MDA-MB-435
# MDA-MB-468 breast = tested on: MDA-MB-468 breast
# MOLT-4 leukemia = tested on: MOLT-4 leukemia
# NCI-H226 lung = tested on: NCI-H226 lung
# NCI-H23 lung = tested on: NCI-H23 lung
# NCI-H460 lung = tested on: NCI-H460 lung
# NCI-H522 lung = tested on: NCI-H522 lung
# NCI/ADR-RES ovarian = tested on: NCI/ADR-RES ovarian
# OVCAR-3 ovarian = tested on: OVCAR-3 ovarian
# OVCAR-4 ovarian = tested on: OVCAR-4 ovarian
# OVCAR-5 ovarian = tested on: OVCAR-5 ovarian
# OVCAR-8 ovarian = tested on: OVCAR-8 ovarian
# PC-3 prostate = tested on: PC-3 prostate
# RPMI-8226 leukemia = tested on: RPMI-8226 leukemia
# SF-268 CNS = tested on: SF-268 CNS
# SF-295 CNS = tested on: SF-295 CNS
# SF-539 CNS = tested on: SF-539 CNS
# SK-MEL-2 melanoma = tested on: SK-MEL-2 melanoma
# SK-MEL-28 melanoma = tested on: SK-MEL-28 melanoma
# SK-MEL-5 melanoma = tested on: SK-MEL-5 melanoma
# SK-OV-3 ovarian = tested on: SK-OV-3 ovarian
# SN12C renal = tested on: SN12C renal
# SNB-19 CNS = tested on: SNB-19 CNS
# SNB-75 CNS = tested on: SNB-75 CNS
# SR leukemia = tested on: SR leukemia
# SW-620 colon = tested on: SW-620 colon
# T-47D breast = tested on: T-47D breast
# TK-10 renal = tested on: TK-10 renal
# U251 CNS = tested on: U251 CNS
# UACC-257 melanoma = tested on: UACC-257 melanoma
# UACC-62 melanoma = tested on: UACC-62 melanoma
# UO-31 renal = tested on: UO-31 renal
smiles,measurement,setting,value
Clc1ccc2c(NCCNC34CC5CC(CC(C5)C3)C4)ccnc2c1,GI50,786-0 renal,2410 nM
same,TGI,786-0 renal,5.57 µM
same,GI50,A498 renal,3.09 µM
same,TGI,A498 renal,6.1 µM
same,GI50,A549 NSCLC,3.19 µM
same,TGI,A549 NSCLC,7.18 µM
same,GI50,ACHN renal,2880 nM
same,TGI,ACHN renal,5.83 µM
same,GI50,BT-549 breast,2670 nM
same,TGI,BT-549 breast,6.03 µM
same,GI50,CAKI-1 renal,2820 nM
same,TGI,CAKI-1 renal,5.76 µM
same,GI50,CCRF-CEM leukemia,5 µM
same,TGI,CCRF-CEM leukemia,12.9 µM
same,GI50,COLO 205 colon,416 nM
same,TGI,COLO 205 colon,1000 nM
same,GI50,DU-145 prostate,3.57 µM
same,TGI,DU-145 prostate,6.72 µM
same,GI50,EKVX NSCLC,3.53 µM
same,TGI,EKVX NSCLC,7.16 µM
same,GI50,HCC-2998 colon,889 nM
same,TGI,HCC-2998 colon,3.32 µM
same,GI50,HCT-116 colon,1430 nM
same,TGI,HCT-116 colon,4.91 µM
same,GI50,HCT-15 colon,763 nM
same,TGI,HCT-15 colon,3.28 µM
same,GI50,HL-60(TB) leukemia,3.69 µM
same,TGI,HL-60(TB) leukemia,8.73 µM
same,GI50,HOP-62 NSCLC,3.7 µM
same,TGI,HOP-62 NSCLC,7.41 µM
same,GI50,HOP-92 NSCLC,484 nM
same,TGI,HOP-92 NSCLC,3.17 µM
same,GI50,HS 578T breast,2640 nM
same,TGI,HS 578T breast,6.51 µM
same,GI50,HT29 colon,675 nM
same,TGI,HT29 colon,2710 nM
same,GI50,IGROV1 ovarian,3.37 µM
same,TGI,IGROV1 ovarian,6.65 µM
same,GI50,K-562 leukemia,756 nM
same,TGI,K-562 leukemia,4.57 µM
same,GI50,KM12 colon,2870 nM
same,TGI,KM12 colon,5.82 µM
same,GI50,LOX IMVI melanoma,1060 nM
same,TGI,LOX IMVI melanoma,4.07 µM
same,GI50,M14 melanoma,430 nM
same,TGI,M14 melanoma,837 nM
same,GI50,MALME-3M melanoma,1250 nM
same,TGI,MALME-3M melanoma,4.24 µM
same,GI50,MCF7 breast,868 nM
same,TGI,MCF7 breast,3.47 µM
same,GI50,MDA-MB-231 breast,2380 nM
same,TGI,MDA-MB-231 breast,5.19 µM
same,GI50,MDA-MB-435,566 nM
same,TGI,MDA-MB-435,1600 nM
same,GI50,MDA-MB-468 breast,435 nM
same,TGI,MDA-MB-468 breast,1210 nM
same,GI50,MOLT-4 leukemia,3.63 µM
same,TGI,MOLT-4 leukemia,10.2 µM
same,GI50,NCI-H226 lung,3.04 µM
same,TGI,NCI-H226 lung,6.5 µM
same,GI50,NCI-H23 lung,3.41 µM
same,TGI,NCI-H23 lung,6.82 µM
same,GI50,NCI-H460 lung,3.31 µM
same,TGI,NCI-H460 lung,6.61 µM
same,GI50,NCI-H522 lung,2900 nM
same,TGI,NCI-H522 lung,6.34 µM
same,GI50,NCI/ADR-RES ovarian,3.21 µM
same,TGI,NCI/ADR-RES ovarian,6.42 µM
same,GI50,OVCAR-3 ovarian,3.11 µM
same,TGI,OVCAR-3 ovarian,6.1 µM
same,GI50,OVCAR-4 ovarian,2950 nM
same,TGI,OVCAR-4 ovarian,7.8 µM
same,GI50,OVCAR-5 ovarian,2900 nM
same,TGI,OVCAR-5 ovarian,6.05 µM
same,GI50,OVCAR-8 ovarian,2900 nM
same,TGI,OVCAR-8 ovarian,6.16 µM
same,GI50,PC-3 prostate,3.1 µM
same,TGI,PC-3 prostate,7.77 µM
same,GI50,RPMI-8226 leukemia,1220 nM
same,TGI,RPMI-8226 leukemia,9.55 µM
same,GI50,SF-268 CNS,3.03 µM
same,TGI,SF-268 CNS,6.14 µM
same,GI50,SF-295 CNS,3.47 µM
same,TGI,SF-295 CNS,6.67 µM
same,GI50,SF-539 CNS,533 nM
same,TGI,SF-539 CNS,1210 nM
same,GI50,SK-MEL-2 melanoma,3.37 µM
same,TGI,SK-MEL-2 melanoma,6.62 µM
same,GI50,SK-MEL-28 melanoma,3.15 µM
same,TGI,SK-MEL-28 melanoma,6.2 µM
same,GI50,SK-MEL-5 melanoma,3.12 µM
same,TGI,SK-MEL-5 melanoma,6.12 µM
same,GI50,SK-OV-3 ovarian,4.32 µM
same,TGI,SK-OV-3 ovarian,8.21 µM
same,GI50,SN12C renal,3.24 µM
same,TGI,SN12C renal,6.34 µM
same,GI50,SNB-19 CNS,3.8 µM
same,TGI,SNB-19 CNS,7.19 µM
same,GI50,SNB-75 CNS,3.15 µM
same,TGI,SNB-75 CNS,6.97 µM
same,GI50,SR leukemia,622 nM
same,TGI,SR leukemia,2310 nM
same,GI50,SW-620 colon,2830 nM
same,TGI,SW-620 colon,6 µM
same,GI50,T-47D breast,3.33 µM
same,TGI,T-47D breast,7.75 µM
same,GI50,TK-10 renal,3.71 µM
same,TGI,TK-10 renal,7.28 µM
same,GI50,U251 CNS,1320 nM
same,TGI,U251 CNS,4.78 µM
same,GI50,UACC-257 melanoma,3.24 µM
same,TGI,UACC-257 melanoma,6.62 µM
same,GI50,UACC-62 melanoma,3.03 µM
same,TGI,UACC-62 melanoma,6.05 µM
same,GI50,UO-31 renal,2570 nM
same,TGI,UO-31 renal,5.38 µM
